{
  "source": "patent US20070059687A1",
  "about": "“Process for evaluating phagocytotic function and use thereof” (priority 2001, published 2007)",
  "key": {"[1]": {"tested_on": "specimen A-SA (Staphylococcus aureus)", "assay": "In situ hybridization of clinical blood specimens of patients suspected of sepsis", "type": "cell-based", "conditions": "0.25% SDS added to probe dilution solution, FIG. 1", "protocol": "As clinical specimens, 12 specimens of blood collected from patients suspected as suffering from sepsis (specimens A to L) were used. Ten ml of heparinized venous blood was collected from each patient, and after admixing the blood with a reagent for separating blood (225 mg of sodium chloride, 1.5 g of dextran (MW: 200,000-300,000)), adjusted to give the total volume of 25 ml with sterile purified water) at a ratio of 4:1, a leukocyte fraction (upper layer) was obtained by leaving to stand still at 37° C. for 30 minutes. […] The slide glass was immersed in PBS for 10 minutes, and thereafter, in a solution of an enzyme pretreatment reagent (prepared by mixing 1.25 g of saponin, 1.25 ml of t-octylphenoxypolyethoxyethanol (specific gravity: 1.068 to 1.075 (20/4° C.), pH (5 w/v %) 5.5-7.5) and 25 ml of the PBS stock solution, and adjusting to give the total volume of 50 ml with sterile purified water) diluted to 10 fold in sterile purified water, and allowing infiltration on a shaker for 10 minutes. […] Then, it was immersed in PBS containing 0.2 mol/l hydrochloric acid (prepared by adding hydrochloric acid to the PBS stock solution, 20 fold dilution in sterile purified water, and adjusting to give the final concentration of hydrochloric acid of 0.2 mol/l) and allowed infiltration on a shaker for 10 minutes as it was. […] A probe solution without including SDS was determined as a control. […]"}, "digested samples": {"tested_on": "digested samples", "assay": "Influence of surfactant added to hybridization solution on signal detection", "type": "cell-based", "conditions": "for detection sensitivity: surfactant added to the probe dilution solution, SDS 0.25%", "protocol": "A solution containing 15 ng of a digoxigenin labelled DNA probe prepared with a probe dilution solution (including 0.25% SDS, 600 μl of salmon sperm DNA, 50 μl of 100× Denhardt's solution, 500 μl of a hybridization stock solution, 2250 μl of formamide, 1000 μl 50% dextran sulfate) is coated on the smeared site, and the slide was left to stand still in a humid box at 37° C. to 42° C. for 2 hours. A probe solution without including SDS was determined as a control. The digoxigenin labelled DNA probe was produced by a nick translation method. Thereafter, a hybridization washing solution (prepared by mixing a hybridization stock solution (13.15 g of sodium chloride, 6.615 g of trisodium citrate dihydrate, adjusted to give the total volume of 75 ml with sterile purified water) in a ratio of the hybridization stock solution:sterile purified water:formamide=5:4:50) was provided in three staining bottles, and sequentially the sample was immersed at 42° C. for 10 minutes, respectively.\nThe digested samples produced according to the process described in Example 17(1) and [2] were used as specimens. […] In addition, the detection sensitivity could be improved by lauryl sarcosine, BRIJ 35 or Tween 20."}, "EF digested sample": {"tested_on": "EF digested sample", "assay": "Enzymatic treatment of digested sample, bacterial bodies in leukocytes by acridine orange staining", "type": "cell-based, Enterococcus faecalis", "conditions": "N-acetylmuramidase fixed at 100 unit/ml", "protocol": "Using the slide glass having each digested sample smeared thereon, the enzymatic pretreatment was performed according to the process described in Example 3. Next, the slide glass after completing the enzymatic pretreatment was placed in a humid box, and the reaction was allowed by dropping 1 ml of each enzyme solution prepared to give each titer on the smeared site of the specimen. Thereafter, the slide glass was immersed in PBS containing 0.2 mol/l hydrochloric acid, and in 70% ethanol respectively, for 10 minutes, and air dried. After immersing this slide glass in PBS containing 70 mmol/l sodium hydroxide for 3 minutes, and in 70% ethanol for 10 minutes, it was air dried and stained with 1% acridine orange staining solution. Then, evaluation was made with a fluorescence microscope (×1,000). For Staphylococcus aureus and Staphylococcus epidermidis, examination of the optimal titer was conducted with lysostafin. […] The determination was made as adequate when no bacterial body was identified in the leukocytes by the enzymatic treatment.\nUsing a slide glass including each digested sample smeared thereon, examination was conducted according to the process described in example 17 (2). Time period of the enzymatic treatment in this test was 30 minutes, and the temperature for examination was 4° C., 25° C., 37° C., 42° C., and 60° C.\nUsing the slide glass including each digested sample smeared thereon, examination was conducted according to the process described in example 17 (2). […] Determination was conducted according to the process described in example 17 (2)."}, "Micrococcus luteus": {"tested_on": "Micrococcus luteus", "assay": "Lysis evaluated by decrease in turbidity at 600 nm", "type": "cell-based", "conditions": "lysozyme 10,000 unit/ml", "protocol": "(§1) Enterococcus faecalis was inoculated in 50 ml of the aforementioned BHI liquid medium, and cultured at 37° C. for 8 hours or longer. This culture liquid was centrifuged at 4° C. for 10 minutes at 2,000×g to collect the bacteria, followed by subjecting to a heat treatment in an autoclave (120° C., for 10 minutes) after suspending in PBS. Next, the suspension was centrifuged at 4° C. for 10 minutes at 2,000×g, and the supernatant was discarded. Precipitates were suspended in 1 ml of PBS, and thereafter, subjected to freeze-drying. This freeze-dried sample was suspended in 5 mmol/l Tris-hydrochloric acid (pH 6.0), 2 mmol/l magnesium chloride containing 0 to 10% DMSO to give the samples for N-acetylmuramidase. Further, Micrococcus luteus (JCM1464) was inoculated in 5 ml of BHI liquid medium (supra), and cultured at 37° C. for 8 hours or longer. The cultured bacterial liquid was centrifuged at 4° C. for 10 minutes at 2,000×g to collect the bacteria. After discarding the supernatant, and suspending and washing the bacterial pellet with 5 ml of PBS, centrifugation was conducted once again at 4° C. for 10 minutes at 2,000×g to collect the bacteria. […] Enzymatic activity was evaluated on the basis of the decrease in turbidity of the sample at the absorbance of 600 nm using a microplate reader. […] Additionally, no decrease in enzymatic activity was found with DMSO at the concentration of 2% or less. […] The results are show in FIG. 4(a) to (c) and Table 3 below."}, "Enterococcus faecalis": {"tested_on": "Enterococcus faecalis", "assay": "Lysis evaluated by decrease in turbidity at 600 nm", "type": "cell-based", "source_text": "(§2) Conditions for the enzyme to lyse Staphylococcus aureus (ATCC 12600), Staphylococcus epidermidis (ATCC 14990), Pseudomonas aeruginosa (ATCC 10145), Enterococcus faecalis (ATCC 19433) and Escherichia coli (ATCC 11775) were studied. For Staphylococcus aureus and Staphylococcus epidermidis, lysostafin was used as the lytic enzyme (Bur. J. Biochem., 38, 293-300, 1973). […] Further, for Pseudomonas aeruginosa and Escherichia coli, PBS containing 70 mmol/l sodium hydroxide was used. Each type of these bacteria was inoculated in 5 ml of BHI (Brain Heart Infusion) liquid medium (manufactured by DIFCO), and cultured at 37° C. for 8 hours or longer. Thus cultured bacterial liquid was collected by centrifugation at 4° C. for 10 minutes at 2,000×g. The collected bacteria were suspended in PBS to give a sample.\n(§3) Lysis was evaluated by decrease in turbidity of the bacterial liquid at the absorbance of 600 nm using a microplate reader. Consequently, Staphylococcus aureus and Staphylococcus epidermidis were lysed by lysostafin. In respect of Pseudomonas aeruginosa and Escherichia coli, no enzymatic treatment was required because lysis was conducted with PBS containing 70 mmol/l sodium hydroxide. […] Moreover, when the bacterium incorporated upon phagocytotic action is for example, Pseudomonas aeruginosa, Escherichia coli or the like, bacterial cell wall is lysed during the alkaline treatment to result in the state in which the gene is exposed. Therefore, it is not necessary to conduct this enzymatic treatment. Each enzyme for the pretreatment which is used in lysis of the foreign microorganism according to the present invention is effective not only for the aforementioned bacterial strain, but also for other bacterial strain that includes other genus staphylococcus, genus streptococcus, genus bacillus, genus micrococcus and the like. […] The results are illustrated in FIG. 3, specifically, in regard to: (a) Staphylococcus aureus and Staphylococcus epidermidis, (b) Pseudomonas aeruginosa and Escherichia coli, and (c) Enterococcus faecalis.\nas §1"}, "[2]": {"tested_on": "Staphylococcus epidermidis", "assay": "Lysis evaluated by decrease in turbidity at 600 nm", "type": "cell-based", "conditions": "lysostafin 50 unit/ml", "source_text": "as §2, §3, §1"}},
  "data": [
    {"compound": "CCCCCCCCCCCCOS(=O)(=O)[O-].[Na+]", "note": "[SDS, sodium dodecyl sulfate]", "values": [
      {"measurement": "detection sensitivity of the signal", "setting": "[1]", "value": "markedly elevated"},
      {"measurement": "preferable concentration", "setting": "digested samples; SDS at various concentrations", "value": "≤ 1", "unit": "%"},
      {"measurement": "detection sensitivity", "setting": "digested samples", "value": "dramatically enhanced"}
    ]},
    {"compound": "CCCCCCCCCCCCN(C)CC(=O)O", "note": "[Lauryl sarcosine]", "values": [
      {"measurement": "detection sensitivity", "setting": "digested samples", "value": "improved"}
    ]},
    {"compound": "lysozyme: lytic enzyme (Seikagaku Corporation)", "values": [
      {"measurement": "enzymatic treatment determination", "setting": "EF digested sample; lysozyme titer 10 U/mL", "value": "inadequate"},
      {"measurement": "enzymatic treatment determination", "setting": "EF digested sample; lysozyme titer 100 U/mL", "value": "inadequate"},
      {"measurement": "enzymatic treatment determination", "setting": "EF digested sample; lysozyme titer 1,000 U/mL", "value": "inadequate"},
      {"measurement": "enzymatic treatment determination", "setting": "EF digested sample; lysozyme titer 10,000 U/mL", "value": "adequate"},
      {"measurement": "enzymatic treatment determination", "setting": "EF digested sample; lysozyme titer 100,000 U/mL", "value": "adequate"},
      {"measurement": "Decrease in turbidity of bacteria", "setting": "Micrococcus luteus; added DMSO 0 % (control)", "value": "0.689 ± 0.028", "unit": "O.D./3 minutes"},
      {"measurement": "Decrease in turbidity of bacteria", "setting": "Micrococcus luteus; added DMSO 0.1 %", "value": "0.678 ± 0.026", "unit": "O.D./3 minutes"},
      {"measurement": "Decrease in turbidity of bacteria", "setting": "Micrococcus luteus; added DMSO 1 %", "value": "0.660 ± 0.026", "unit": "O.D./3 minutes"},
      {"measurement": "Decrease in turbidity of bacteria", "setting": "Micrococcus luteus; added DMSO 2 %", "value": "0.653 ± 0.024", "unit": "O.D./3 minutes"},
      {"measurement": "Decrease in turbidity of bacteria", "setting": "Micrococcus luteus; added DMSO 5 %", "value": "0.566 ± 0.017", "unit": "O.D./3 minutes"},
      {"measurement": "Decrease in turbidity of bacteria", "setting": "Micrococcus luteus; added DMSO 10 %", "value": "0.464 ± 0.016", "unit": "O.D./3 minutes"},
      {"measurement": "lytic activity", "setting": "Enterococcus faecalis; lysozyme in combination with N-acetylmuramidase versus N-acetylmuramidase alone, FIG. 3(c)", "value": "more excellent lytic activity"}
    ]},
    {"compound": "C[S+](C)[O-]", "note": "[DMSO, dimethylsulfoxide]", "values": [
      {"measurement": "DMSO concentration at which decrease in activity was found", "setting": "Micrococcus luteus", "value": "≥ 5", "unit": "%"},
      {"measurement": "DMSO concentration at which no decrease in enzymatic activity was found", "setting": "Micrococcus luteus", "value": "≤ 2", "unit": "%"},
      {"measurement": "influence on N-acetylmuramidase activity", "setting": "Enterococcus faecalis; DMSO 0 to 10%, N-acetylmuramidase 300 unit/ml", "value": "hardly influenced"},
      {"measurement": "DMSO concentration at which decrease in activity was found", "setting": "[2]", "value": "≥ 5", "unit": "%"},
      {"measurement": "DMSO concentration at which no decrease in enzymatic activity was found", "setting": "[2]", "value": "≤ 2", "unit": "%"}
    ]}
  ]
}
